Values of other authors in patent US20170027865A1, “Dry Pharmaceutical Compositions for Topical Delivery of Oral Medications, Nasal Delivery and to Treat Ear Disorders” (CMPD LICENSING LLC, priority 2013, published 2017).

How the values were obtained:
[1] = system: Aspergillus fumigatus
[2] = system: Candida species
[3] = system: Fusarium species
[4] = system: Aspergillus terreus
[5] = system: Aspergillus flavus
[6] = system: Aspergillus niger
[7] = system: Scedosporium apiospermum

Measured: Expected coverage

C[C@@H](c1ncncc1F)[C@](O)(Cn1cncn1)c1ccc(F)cc1F [Voriconazole, voriconazole]
yes: all assays above
